Like-named read-outs stand apart in the source and are kept apart here.
Tests used:
[1] = system: [14C] acetate incorporation in macromolecules, BT474 cells; test: Cell based [14C] acetate incorporation assay; conditions: read-out: Cellular Activity (IC50 range)
Experimental: Cell Based [^14C] Acetate Incorporation Assay
In the cellular assay, ACSS2 inhibitors were screened against [^14C] acetate incorporation in macromolecules. 4×10^4 BT474 cells were plated in 96 well plates in growth media composed of DMEM & 10% FBS and incubated overnight in a 37° C., 5% CO2 incubator. The following day the cells were washed in HBSS and the assay was performed in 100 μl of HBSS. 50 μl of 4× compound in 4% DMSO was added to the cells and preincubated for 10 min. at 37° C. 50 μl of acetate solution (0.1 μCi ^14C acetate+10 μM ^12C acetate) was added to each well of the plate and incubated for 3 h in a 37° C., 5% CO2 incubator. Following incubation, cells were harvested with water on polyethylene imine (PEI) presoaked GF/C filtermat, air dried and radioactive count were recorded in Trilux micro beta Liquid Scintillation Counter (PerkinElmer).

human ACSS2 = biological target: T1, human ACSS2 (Homo sapiens, UniProt Q9NR19); test: ACSS2 enzyme assay (acetyl-CoA formation, LC-MS/MS); format: biochemical; conditions: cytosolic fraction of BT474 cells as ACSS2 source; 100 μM acetate, CoA and ATP; 2 h at 25° C.; read-out: Enzyme Activity (IC50 range)
T1 construct: The cytosolic fraction of BT474 cells was used as a source of the ACSS2 enzyme; endogenous in cells; host or cells: BT474 cells (cytosolic fraction)
Experimental: Novel compounds were screened in a human ACSS2 enzyme assay. Briefly, the ACSS2 enzyme reaction was monitored by directly measuring acetyl-CoA formation. The cytosolic fraction of BT474 cells was used as a source of the ACSS2 enzyme. A short protocol for this assay is provided below.
Preparation of Cytosolic Fraction from BT474 Cells
9×10^6 cells were harvested by trypsinization followed by centrifugation. The cell pellet was washed with PBS and dissolved in 500 μl STM buffer (50 mM Tris-HCl pH7.4, 250 mM sucrose, 5 mM MgCl2 & protease-phosphatase inhibitor cocktail) and homogenized at 600-1000 rpm for 1 min. on ice followed by incubation for 30 min. with intermittent vortexing. Supernatant was collected by centrifugation at 800 g for 15 min. at 4° C. Cytosolic fraction was prepared by further centrifugation of the supernatant at 12000 g for 15 min. at 4° C. Total protein content of the cytosolic fraction was estimated & diluted to 1 mg/ml concentration in storage buffer (25 mM Tris-HCl pH7.4, 1 mM MgCl2, 1 mM DTT & 10% glycerol) and stored at −80° C. for further use.
100 ng of cytosolic fraction in buffer composed of 25 mM Tris-HCl pH7.4 1 mM MgCl2, 1 mM DTT & 0.05% Tween20 was preincubated with desired concentrations of novel compounds for 5 min. maintaining 1% DMSO. Reaction was started with addition of substrate mix (100 μM of acetate, CoA and ATP) and incubated for 2 h at 25° C. with constant shaking at 500 rpm. Post incubation the reaction was terminated by addition of 10% TCA followed by 5 fold dilution in water. The reaction mixture was centrifuged at 800 g for 10 min. at RT and acetyl-CoA detected in supernatant by LC-MS/MS (QTrap5500 ABSCIEX).

[2] = Homo sapiens, BT-474, 3 h at 37° C.

T1 sequence (Q9NR19 whole entry): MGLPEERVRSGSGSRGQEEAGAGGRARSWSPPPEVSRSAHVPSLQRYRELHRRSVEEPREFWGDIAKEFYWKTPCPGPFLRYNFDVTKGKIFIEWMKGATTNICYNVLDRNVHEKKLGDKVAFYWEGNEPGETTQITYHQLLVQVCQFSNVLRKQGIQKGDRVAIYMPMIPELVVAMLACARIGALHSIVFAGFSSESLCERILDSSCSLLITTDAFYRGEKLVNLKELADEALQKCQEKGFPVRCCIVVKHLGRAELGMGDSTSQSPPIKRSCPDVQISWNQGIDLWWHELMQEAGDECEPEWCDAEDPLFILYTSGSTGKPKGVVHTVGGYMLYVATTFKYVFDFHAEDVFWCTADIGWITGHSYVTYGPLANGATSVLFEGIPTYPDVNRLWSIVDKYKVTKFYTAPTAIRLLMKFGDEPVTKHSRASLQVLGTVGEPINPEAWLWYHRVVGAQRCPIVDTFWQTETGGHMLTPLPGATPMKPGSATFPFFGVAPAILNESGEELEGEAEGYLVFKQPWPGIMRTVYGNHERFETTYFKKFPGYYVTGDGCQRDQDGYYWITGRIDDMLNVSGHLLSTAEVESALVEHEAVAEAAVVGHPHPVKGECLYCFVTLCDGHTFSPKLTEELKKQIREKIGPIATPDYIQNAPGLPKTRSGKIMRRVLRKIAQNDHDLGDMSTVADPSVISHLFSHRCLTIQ

| SMILES | IC50 [1, 2] | IC50 (human ACSS2) | IC50 ([1]; 3 h at 37° C.) |
| --- | --- | --- | --- |
| CCC(=O)CCC(=O)Nc1ccc2nc(-c3ccccc3OC)c(-c3ccccc3F)cc2c1 [Example 126, N-(3-(2-fluoro-phenyl)-2-(2-methoxy-phenyl)quinolin-6-yl)-4-oxohexan-amide] | < 100 nM | < 100 nM | – |
| CCC(O)CCC(=O)Nc1ccc2nc(-c3ccccc3F)c(-c3ccccc3F)cc2c1 (stereo not shown) [Example 128, N-(2,3-Bis(2-fluorophenyl)quinolin-6-yl)-4-hydroxyhexanamide] | < 100 nM | < 100 nM | – |
| CC[C@H](CNC(=O)Nc1ccc2nc(-c3ccccc3)c(-c3ccccc3F)cc2c1)OP(=O)(O)O [Example 117, (R)-1-(3-(3-(2-fluorophenyl)-2-phenylquinolin-6-yl)ureido)butan-2-yl dihydrogen phosphate] | < 100 nM | < 100 nM | – |
| CCC(F)(F)CNC(=O)Nc1ccc2nc(-c3ccccc3)c(-c3ccccc3)cc2c1 [Example 107, 1-(2,2-difluorobutyl)-3-(2,3-diphenylquinolin-6-yl)urea] | < 100 nM | < 100 nM | – |
| CCC(O)CNC(=O)Nc1ccc2nc(-c3ccccc3)c(-c3ccccc3)c(N(C)C)c2c1 (stereo not shown) [Example 91, 1-(4-(dimethylamino)-2,3-diphenylquinolin-6-yl)-3-(2-hydroxybutyl) urea] | < 100 nM | < 100 nM | – |
| CC[C@H](O)CNC(=O)Nc1ccc2nc(-c3ccccc3)c(-c3ccccc3F)cc2c1 [Example 67, (S)-1-(3-(2-fluorophenyl)-2-phenylquinolin-6-yl)-3-(2-hydroxybutyl) urea] | < 100 nM | < 100 nM | – |
| CC[C@H](O)CNC(=O)Nc1ccc2nc(-c3ccccc3F)c(-c3ccccc3F)cc2c1 [Example 28, (S)-1-(2,3-bis(2-fluorophenyl)quinolin-6-yl)-3-(2-hydroxybutyl) urea] | < 100 nM | < 100 nM | – |
| CC[C@@H](O)CNC(=O)Nc1ccc2nc(C)c(-c3ccccc3F)cc2c1 [Example 100, (R)-1-(3-(2-fluorophenyl)-2-methylquinolin-6-yl)-3-(2-hydroxybutyl) urea] | < 100 nM | < 100 nM | – |
| CCOc1ccccc1-c1nc2ccc(NC(=O)NCC(O)CC)cc2cc1-c1ccccc1 (stereo not shown) [Example 58, 1-(2-(2-ethoxyphenyl)-3-phenylquinolin-6-yl)-3-(2-hydroxybutyl) urea] | < 100 nM | < 100 nM | – |
| CCC(F)(F)CNC(=O)Nc1ccc2nc(C)c(-c3ccccc3F)cc2c1 [Example 110, 1-(2,2-difluorobutyl)-3-(3-(2-fluorophenyl)-2-methylquinolin-6-yl)urea] | < 100 nM | < 100 nM | – |
| CC[C@@H](O)CNC(=O)Nc1ccc2nc(-c3ccccc3)c(-c3ccccc3)c(C)c2c1 [Example 103, (R)-1-(2-hydroxybutyl)-3-(4-methyl-2,3-diphenylquinolin-6-yl)urea] | < 100 nM | < 100 nM | – |
| CCCCNC(=O)Nc1ccc2nc(-c3ccccc3)c(-c3ccccc3F)cc2c1 [Example 16, 1-butyl-3-(3-(2-fluorophenyl)-2-phenylquinolin-6-yl)urea] | < 100 nM | < 100 nM | – |
| CCC(O)CNC(=O)Nc1ccc2nc(-c3ccccn3)c(-c3ccccc3)cc2c1 (stereo not shown) [Example 38, 1-(2-hydroxybutyl)-3-(3-phenyl-2-(pyridin-2-yl)quinolin-6-yl)urea] | ≤ 1000 nM | < 100 nM | – |
| CC[C@@H](O)CNC(=O)Nc1ccc2nc(C)c(-c3ccccc3)c(OC)c2c1 [Example 102, (R)-1-(2-hydroxybutyl)-3-(4-methoxy-2-methyl-3-phenylquinolin-6-yl)urea] | < 100 nM | < 100 nM | – |
| CCCCNC(=O)Nc1ccc2nc(-c3ccccc3F)c(-c3ccccc3F)cc2c1 [Example 14, 1-(2,3-bis(2-fluorophenyl)quinolin-6-yl)-3-butylurea] | < 100 nM | < 100 nM | – |
| CCC(O)CNC(=O)Nc1ccc2nc(C)c(-c3ccccc3)c(C(N)=O)c2c1 (stereo not shown) [Example 66, 6-(3-(2-hydroxybutyl)ureido)-2-methyl-3-phenylquinoline-4-carboxamide] | ≤ 1000 nM | < 100 nM | – |

| SMILES | IC50 [1, 2] | IC50 (human ACSS2) | IC50 ([1]; 3 h at 37° C.) |
| --- | --- | --- | --- |
| CCC(O)CNC(=O)Nc1ccc2nc(-c3ccncc3)c(-c3ccncc3)cc2c1 (stereo not shown) [Example 24, 1-(2,3-di(pyridin-4-yl)quinolin-6-yl)-3-(2-hydroxybutyl) urea] | ≤ 10000 nM | ≤ 1000 nM | – |
| CCC(CNC(=O)Nc1ccc2nc(C)c(-c3ccccc3)cc2c1)OC (stereo not shown) [Example 77, 1-(2-methoxybutyl)-3-(2-methyl-3-phenylquinolin-6-yl)urea] | ≤ 1000 nM | < 100 nM | – |
| O=C(Nc1ccc2nc(-c3ccccc3)c(-c3ccccc3)cc2c1)NC1CCCC1O (stereo not shown) [Example 136, 1-(2,3-diphenylquinolin-6-yl)-3-(2-hydroxycyclo-pentyl)urea] | ≤ 1000 nM | ≤ 1000 nM | – |
| CCC(O)CNC(=O)Nc1ccc2ncc(-c3ccccc3)c(C(N)=O)c2c1 (stereo not shown) [Example 71, 6-(3-(2-hydroxybutyl)ureido)-3-phenylquinoline-4-carboxamide] | > 10000 nM | ≤ 1000 nM | – |
| CCC(O)CNC(=O)Nc1ccc2nc(-c3ccccc3)c(-c3ccccc3)c(C(=O)OC)c2c1 (stereo not shown) [Example 48, methyl 6-(3-(2-hydroxybutyl)ureido)-2,3-diphenylquino-line-4-carboxylate] | < 100 nM | < 100 nM | – |
| CCC(O)CNC(=O)Nc1ccc2nc(-c3ccccc3C#N)c(-c3ccccc3F)cc2c1 (stereo not shown) [Example 53, 1-(2-(2-cyanophenyl)-3-(2-fluorophenyl)quinolin-6-yl)-3-(2-hydroxybutyl) urea] | ≤ 1000 nM | < 100 nM | – |
| CCC(O)CNC(=O)Nc1ccc2nc(C)c(-c3ccccc3)c(C#N)c2c1 (stereo not shown) [Example 98, 1-(4-cyano-2-methyl-3-phenylquinolin-6-yl)-3-(2-hydroxybutyl) urea] | < 100 nM | ≤ 1000 nM | – |
| CCC(O)CNC(=O)Nc1ccc2nc(-c3ccccc3NC(C)=O)c(-c3ccccc3F)cc2c1 (stereo not shown) [Example 51, N-(2-(3-(2-fluorophenyl)-6-(3-(2-hydroxybutyl)ureido)quinolin-2-yl)phenyl)acet-amide] | < 100 nM | < 100 nM | – |
| CCC(O)CNC(=O)Nc1ccc2nc(-c3ccccc3)c(-c3ccccc3)c(C(=O)NC)c2c1 (stereo not shown) [Example 62, 6-(3-(2-hydroxybutyl)ureido)-N-methyl-2,3-diphenylquino-line-4-carboxamide] | < 100 nM | < 100 nM | – |
| CCC(O)CNC(=O)Nc1ccc2nc(-c3ccnc(O)c3)c(-c3ccnc(O)c3)cc2c1 (stereo not shown) [Example 29, 1-(2,3-bis(2-hydroxypyridin-4-yl)quinolin-6-yl)-3-(2-hydroxybutyl) urea] | > 10000 nM | > 10000 nM | – |
| CCC(O)CNC(=O)Nc1ccc2nc(C3CCCCC3)c(-c3ccccc3F)cc2c1 (stereo not shown) [Example 39, 1-(2-cyclohexyl-3-(2-fluorophenyl)quinolin-6-yl)-3-(2-hydroxybutyl) urea] | ≤ 10000 nM | > 10000 nM | – |
| CCC(O)CNC(=O)Nc1ccc2nc(-c3ccccc3)c(-c3ccccc3)c(C(N)=O)c2c1 (stereo not shown) [Example 49, 6-(3-(2-hydroxybutyl)ureido)-2,3-diphenylquino-line-4-carboxamide] | < 100 nM | < 100 nM | – |
| CC[C@@H](O)CNC(=O)Nc1ccc2nc(-c3ccccc3)c(C)c(C(N)=O)c2c1 [Example 109, (R)-6-(3-(2-hydroxybutyl)ureido)-3-methyl-2-phenylquinoline-4-carboxamide] | ≤ 1000 nM | < 100 nM | – |
| CCC(O)CNC(=O)Nc1ccc2nc(-c3ccncc3)c(-c3ccccc3F)cc2c1 (stereo not shown) [Example 34, 1-(3-(2-fluorophenyl)-2-(pyridin-4-yl)quinolin-6-yl)-3-(2-hydroxybutyl) urea] | < 100 nM | < 100 nM | – |
| CC[C@H](O)CNC(=O)Nc1ccc2nc(-c3ccccc3)c(-c3ccccc3)cc2c1 [Example 68, (S)-1-(2,3-diphenylquino-lin-6-yl)-3-(2-hydroxybutyl) urea] | – | – | < 100 nM |
